Reference: patent US11993574B2, “Pyrazole and imidazole compounds for inhibition of IL-17 and RORgamma” (REATA PHARMACEUTICALS, INC., priority 2018, dated 2024)

Columns and labels:
Assay type in all cases: cell-based
IL-17A = assay: IL-17 release from differentiated primary human T-cells (IL-17A HTRF assay); conditions: primary human CD4+ T cells differentiated into Th17 cells, 45-hour incubation, IL-17A in supernatant; read-out: hIL17 IC50
Procedure, shortened: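 Primary human CD4+ T cells (~2×10^5/well) given compound (2–500 or 4–1000 nM, 0.1% DMSO), CD3/CD28-activated and Th17-differentiated (TGF-β, IL-6, IL-23, IL-1β) for 45 h at 37° C. Supernatant IL-17A by HTRF against standard curve, normalized to vehicle; IC50 by variable-slope regression, with parallel CyQuant viability.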

[1] = biological target: T1, Human RAR-related Orphan Receptor Gamma (RORγ) (Homo sapiens, UniProt P51449); assay: RORγ assay (GAL4-RORγ hybrid luciferase reporter, Indigo Biosciences); conditions: inverse-agonist activity, GAL4-RORγ reporter cells, 23 hours
T1 sequence (P51449 269-508 limits assumed): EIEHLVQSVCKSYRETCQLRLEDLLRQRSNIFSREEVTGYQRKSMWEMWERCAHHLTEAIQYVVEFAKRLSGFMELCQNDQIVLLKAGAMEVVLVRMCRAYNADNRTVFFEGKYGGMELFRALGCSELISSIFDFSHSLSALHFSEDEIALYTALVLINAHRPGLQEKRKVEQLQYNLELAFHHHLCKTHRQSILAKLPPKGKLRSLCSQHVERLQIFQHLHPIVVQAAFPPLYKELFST
Procedure, shortened: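 […]engineered human reporter cell line expressing GAL4-DBD/RORγ-LBD hybrid with GAL4-UAS luciferase; constitutive activity measured as inverse agonism. Cells treated with compound (7.8-2000 nM) for 23 h at 37 °C; luminescence normalized to DMSO, IC50 by variable-slope fit, with parallel viability readout to flag non-specific inhibition.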

[2] = system: Nrf2 transcription factor; assay: AREc32 luciferase reporter assay; conditions: Homo sapiens; AREc32 cells, 19 hours; concentration required to increase GST ARE luciferase reporter activity by 2-fold; read-out: NRF2 ARE 2-Fold (EC2×)
Procedure, shortened: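 AREc32 cells (MCF-7 with firefly luciferase under eight rat GSTA2 ARE copies) treated 19 h with compound (0.4-200 nM or 3.9-2000 nM) in triplicate. Luminescence normalized to DMSO as fold-induction, capped at 50-fold. EC2× = concentration giving 2-fold reporter increase, interpolated from variable-slope fit.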

IC50 (IL-17A) [µM] | IC50 [1] [µM] | Structure (SMILES) | EC (2-fold) [2] [µM]
0.01 | 0.138 | Cc1ccccc1-c1nn(-c2ccc(-c3ccccc3)cc2)c2c1CC[C@@H]1[C@@H](C)C(=O)C(C#N)=C[C@@]21C [T72] | 0.205
0.03 | 0.04 | C[C@H]1C(=O)C(C#N)=C[C@@]2(C)c3c(c(-c4ccc(CO)cc4)nn3-c3ccc(-c4ccccc4)cc3)CC[C@H]12 [T73] | 0.159
0.016 | 0.111 | C[C@H]1C(=O)C(C#N)=C[C@@]2(C)c3c(c(-c4ccc(CF)cc4)nn3-c3ccc(-c4ccccc4)cc3)CC[C@H]12 [T74] | 0.182
0.13 | 0.068 | C[C@H]1C(=O)C(C#N)=C[C@@]2(C)c3c(c(C4CC4)nn3-c3ccc(-c4ccccc4)cc3)CC[C@H]12 [T75] | 0.248
0.03 | 0.073 | C[C@H]1C(=O)C(C#N)=C[C@@]2(C)c3c(c(C4CCCCC4)nn3-c3ccc(-c4ccccc4)cc3)CC[C@H]12 [T76] | 0.465
0.068 | 0.111 | C[C@H]1C(=O)C(C#N)=C[C@@]2(C)c3c(c(N4CCOCC4)nn3-c3ccc(-c4ccccc4)cc3)CC[C@H]12 [T77] | 0.908
0.048 | 0.062 | C[C@H]1C(=O)C(C#N)=C[C@@]2(C)c3c(c(NC4CCC4)nn3-c3ccc(-c4ccccc4)cc3)CC[C@H]12 [T78] | 0.534
0.178 | 0.14 | CNc1nn(-c2ccc(-c3ccccc3)cc2)c2c1CC[C@@H]1[C@@H](C)C(=O)C(C#N)=C[C@@]21C [T79] | 1.04
0.017 | 0.071 | C[C@H]1C(=O)C(C#N)=C[C@@]2(C)c3c(c(N(C)C4CCC4)nn3-c3ccc(-c4ccccc4)cc3)CC[C@H]12 [T80] | 0.347
0.03 | 0.067 | C[C@H]1C(=O)C(C#N)=C[C@@]2(C)c3c(c(-c4ccccn4)nn3-c3ccc(-c4ccccc4)cc3)CC[C@H]12 [T81] | 0.243
0.063 | 0.044 | C[C@H]1C(=O)C(C#N)=C[C@@]2(C)c3c(c(-c4ccccc4F)nn3-c3ccc(-c4cncnc4)cc3)CC[C@H]12 [T82] | 0.208
0.02 | 0.033 | Cc1cc(-c2ccc(-n3nc(-c4ccccc4F)c4c3[C@]3(C)C=C(C#N)C(=O)[C@H](C)[C@H]3CC4)cc2)cnn1 [T83] | 0.139
0.033 | 0.023 | C[C@H]1C(=O)C(C#N)=C[C@@]2(C)c3c(c(-c4ccccc4F)nn3-c3ccc(-c4ccncc4)cc3)CC[C@H]12 [T84] | 0.121
0.046 | 0.05 | C[C@H]1C(=O)C(C#N)=C[C@@]2(C)c3c(c(-c4ccccc4F)nn3-c3ccc(N4CCOCC4)cc3)CC[C@H]12 [T85] | 0.079
0.088 | 0.351 | C[C@H]1C(=O)C(C#N)=C[C@@]2(C)c3c(c(-c4ccccc4F)nn3-c3nnc(-c4ccccc4)n3C)CC[C@H]12 [T86] | 1.48
0.027 | 0.685 | C[C@H]1C(=O)C(C#N)=C[C@@]2(C)c3c(c(-c4ccccc4F)nn3-c3nc(-c4ccccc4)cs3)CC[C@H]12 [T87] | 1.26
0.011 | 0.219 | C[C@H]1C(=O)C(C#N)=C[C@@]2(C)c3c(c(-c4ccccc4F)nn3-c3nc4cc(C(F)(F)F)ccc4s3)CC[C@H]12 [T88] | 0.743
0.013 | 0.251 | C[C@H]1C(=O)C(C#N)=C[C@@]2(C)c3c(c(-c4ccccc4F)nn3-c3nc4ccc(Cl)cc4s3)CC[C@H]12 [T89] | 0.482
0.057 | 0.135 | C[C@H]1C(=O)C(C#N)=C[C@@]2(C)c3c(c(-c4ccccc4F)nn3-c3nc4ccccc4n3C)CC[C@H]12 [T90] | 1.31
> 0.5 | > 2 | C[C@H]1C(=O)C(C#N)=C[C@@]2(C)c3c(c(-c4ccccc4F)nn3-c3nc4ccccc4[nH]3)CC[C@H]12 [T91] | > 2
0.028 | 0.34 | C[C@H]1C(=O)C(C#N)=C[C@@]2(C)c3c(c(-c4ccccc4F)nn3-c3nc4ccccc4s3)CC[C@H]12 [T92] | 0.491

IC50 (IL-17A) [µM] | IC50 [1] [µM] | Structure (SMILES) | EC (2-fold) [2] [µM]
0.037 | 0.042 | C[C@H]1C(=O)C(C#N)=C[C@@]2(C)c3c(c(-c4ccccc4F)nn3-c3ccc(-c4ccncn4)cc3)CC[C@H]12 [T93] | 0.139
0.024 | 0.065 | Cc1nc(-c2ccc(-n3nc(-c4ccccc4F)c4c3[C@]3(C)C=C(C#N)C(=O)[C@H](C)[C@H]3CC4)cc2)no1 [T94] | 0.146
0.04 | 0.062 | Cc1noc(-c2ccc(-n3nc(-c4ccccc4F)c4c3[C@]3(C)C=C(C#N)C(=O)[C@H](C)[C@H]3CC4)cc2)n1 [T95] | 0.185
0.032 | 0.059 | Cc1noc(-c2nn(-c3ccc(-c4ccccc4)cc3)c3c2CC[C@@H]2[C@@H](C)C(=O)C(C#N)=C[C@@]32C)n1 [T96] | 0.258
0.038 | 0.107 | C[C@H]1C(=O)C(C#N)=C[C@@]2(C)c3c(c(-c4ccccc4)nn3-c3ccc(-c4ccccc4)cn3)CC[C@H]12 [T97] | 0.597
0.078 | 0.289 | C[C@H]1C(=O)C(C#N)=C[C@@]2(C)c3c(c(-c4ccncn4)nn3-c3nc4ccccc4s3)CC[C@H]12 [T98] | 0.275
0.087 | 0.449 | C[C@H]1C(=O)C(C#N)=C[C@@]2(C)c3c(c(-c4cccnc4)nn3-c3nc4ccccc4s3)CC[C@H]12 [T99] | 0.329
0.016 | 0.11 | C[C@H]1C(=O)C(C#N)=C[C@@]2(C)c3c(c(Nc4ccccc4)nn3-c3ccc(-c4ccccc4)cc3)CC[C@H]12 [T100] | 0.319
0.051 | 0.054 | C[C@H]1C(=O)C(C#N)=C[C@@]2(C)c3c(c(-c4ccncc4)nn3-c3ccc(-c4cncc(F)c4)cc3)CC[C@H]12 [T101] | 0.353
0.056 | 0.09 | Cc1cc(-c2ccc(-n3nc(-c4cccnc4)c4c3[C@]3(C)C=C(C#N)C(=O)[C@H](C)[C@H]3CC4)cc2)cnn1 [T102] | 0.918
0.031 | 0.047 | C[C@H]1C(=O)C(C#N)=C[C@@]2(C)c3c(c(-c4cccnc4)nn3-c3ccc(-c4cncc(F)c4)cc3)CC[C@H]12 [T103] | 0.365
0.062 | 0.208 | C[C@H]1C(=O)C(C#N)=C[C@@]2(C)c3c(c(-c4cccc(F)c4)nn3-c3ccnc4ccccc34)CC[C@H]12 [T104] | 0.638
0.021 | 0.067 | C[C@H]1C(=O)C(C#N)=C[C@@]2(C)c3c(c(-c4ccc(F)cc4)nn3-c3ccc(-c4cncc(F)c4)cc3)CC[C@H]12 [T105] | 0.361
0.027 | 0.083 | Cc1noc(-c2ccc(-n3nc(-c4ccc(F)cc4)c4c3[C@]3(C)C=C(C#N)C(=O)[C@H](C)[C@H]3CC4)cc2)n1 [T106] | 0.29
0.087 | 0.112 | Cc1noc(-c2ccc(-n3nc(-c4cccnc4)c4c3[C@]3(C)C=C(C#N)C(=O)[C@H](C)[C@H]3CC4)cc2)n1 [T107] | 0.505
0.223 | 0.154 | Cc1cc(-c2ccc(-n3nc(-c4nc(C)no4)c4c3[C@]3(C)C=C(C#N)C(=O)[C@H](C)[C@H]3CC4)cc2)cnn1 [T108] | 1.25
0.163 | 0.089 | Cc1noc(-c2nn(-c3ccc(-c4cccnc4)cc3)c3c2CC[C@@H]2[C@@H](C)C(=O)C(C#N)=C[C@@]32C)n1 [T109] | 0.543
0.126 | 0.193 | Cc1cc(-c2ccc(-n3nc(-c4noc(C)n4)c4c3[C@]3(C)C=C(C#N)C(=O)[C@H](C)[C@H]3CC4)cc2)cnn1 [T110] | 1.31
0.181 | 0.172 | C[C@H]1C(=O)C(C#N)=C[C@@]2(C)c3nc(C4CCCCC4)n(-c4ccccc4)c3CC[C@H]12 [T113] | > 1
0.507 | 0.106 | C[C@H]1C(=O)C(C#N)=C[C@@]2(C)c3nn(-c4ccc(Cl)cc4)c(-c4ccccc4)c3CC[C@H]12 [T114] | 0.894
0.287 | 0.077 | C[C@H]1C(=O)C(C#N)=C[C@@]2(C)c3nn(-c4ccccc4)c(-c4ccccc4)c3CC[C@H]12 [T115] | 0.466
